Results from patent publication US8592152B2, “Gene detection assay for improving the likelihood of an effective response to an EGFR antagonist cancer therapy” (Genentech, Inc., priority 2000, dated 2013).

System: metastatic breast cancer
Experiment: FISH/clinical outcome study: chemotherapy +/- Herceptin, 1st line therapy
Format: in vivo, human
Method: The Clinical Testing Assay (CTA) involves two separate IHC assays performed with either monoclonal antibodies 4D5 (after protease digestion of the formalin fixed sample) or CB11 (after heat treatment of the formalin fixed sample). Subjects were eligible if either assay was scored at 2+ or 3+. If both were performed, the final score was the higher of the two results. […] Thus, formalin-fixed cut sections stored between 2.5 and 4.5 years from 540 subjects provided the sample pool for this study.

| Molecule | Response rate of newly defined populations (2+/3+ population (469)) | Survival of newly defined populations (2+/3+ population (469)) | Time to progression of newly defined populations (2+/3+ population (469)) | Response rate of newly defined populations (3+ population (349)) | Survival of newly defined populations (3+ population (349)) | Time to progression of newly defined populations (3+ population (349)) | Response rate of newly defined populations (FISH+ population (240)) | Survival of newly defined populations (FISH+ population (240)) | Time to progression of newly defined populations (FISH+ population (240)) |
| --- | --- | --- | --- | --- | --- | --- | --- | --- | --- |
| adrinomycin and cyclophosphamide [AC] | 42 | 21 months | 6.1 months | 42 | 21 months | 6.0 months | 40 | 20 months | 6.2 months |
| CC(=O)O[C@H]1C(=O)[C@@]2(C)[C@H]([C@H](OC(=O)c3ccccc3)[C@]3(O)C[C@H](OC(=O)[C@H](O)[C@@H](NC(=O)c4ccccc4)c4ccccc4)C(C)=C1C3(C)C)[C@]1(OC(C)=O)CO[C@@H]1C[C@@H]2O [P, Paditaxol] | 17 | 18 months | 2.7 months | 17 | 18 months | 3.0 months | 14 | 14 months | 3.2 months |
